Results on 28 compounds are retold here after patent US20090181963A1, “3H-[1,2,3]TRIAZOLO[4,5-D]PYRIMIDINE COMPOUNDS, THEIR USE AS mTOR KINASE AND PI3 KINASE INHIBITORS, AND THEIR [sequence]” (Wyeth, priority 2008, published 2009).

Structures are written as SMILES.

Test [1] has as its target PI3 Kinase α (Homo sapiens, UniProt P42336). Description: Fluorescence polarization assay for PI3K (PI3 Kinase α). In kind it is biochemical. As to conditions: diC8-PI(4,5)P2 substrate, 25 μM ATP, one hour at 25° C. (Polarisation of emitted light reports the rotation of a fluorescent probe.)
In test [2] the target is PI3 Kinase γ (Homo sapiens, UniProt P48736). Nature of the test: Fluorescence polarization assay for PI3K (PI3 Kinase γ). To be noted: diC8-PI(4,5)P2 substrate, 25 μM ATP, one hour at 25° C. The format is biochemical.
Sequence of PI3 Kinase γ (P48736 whole entry): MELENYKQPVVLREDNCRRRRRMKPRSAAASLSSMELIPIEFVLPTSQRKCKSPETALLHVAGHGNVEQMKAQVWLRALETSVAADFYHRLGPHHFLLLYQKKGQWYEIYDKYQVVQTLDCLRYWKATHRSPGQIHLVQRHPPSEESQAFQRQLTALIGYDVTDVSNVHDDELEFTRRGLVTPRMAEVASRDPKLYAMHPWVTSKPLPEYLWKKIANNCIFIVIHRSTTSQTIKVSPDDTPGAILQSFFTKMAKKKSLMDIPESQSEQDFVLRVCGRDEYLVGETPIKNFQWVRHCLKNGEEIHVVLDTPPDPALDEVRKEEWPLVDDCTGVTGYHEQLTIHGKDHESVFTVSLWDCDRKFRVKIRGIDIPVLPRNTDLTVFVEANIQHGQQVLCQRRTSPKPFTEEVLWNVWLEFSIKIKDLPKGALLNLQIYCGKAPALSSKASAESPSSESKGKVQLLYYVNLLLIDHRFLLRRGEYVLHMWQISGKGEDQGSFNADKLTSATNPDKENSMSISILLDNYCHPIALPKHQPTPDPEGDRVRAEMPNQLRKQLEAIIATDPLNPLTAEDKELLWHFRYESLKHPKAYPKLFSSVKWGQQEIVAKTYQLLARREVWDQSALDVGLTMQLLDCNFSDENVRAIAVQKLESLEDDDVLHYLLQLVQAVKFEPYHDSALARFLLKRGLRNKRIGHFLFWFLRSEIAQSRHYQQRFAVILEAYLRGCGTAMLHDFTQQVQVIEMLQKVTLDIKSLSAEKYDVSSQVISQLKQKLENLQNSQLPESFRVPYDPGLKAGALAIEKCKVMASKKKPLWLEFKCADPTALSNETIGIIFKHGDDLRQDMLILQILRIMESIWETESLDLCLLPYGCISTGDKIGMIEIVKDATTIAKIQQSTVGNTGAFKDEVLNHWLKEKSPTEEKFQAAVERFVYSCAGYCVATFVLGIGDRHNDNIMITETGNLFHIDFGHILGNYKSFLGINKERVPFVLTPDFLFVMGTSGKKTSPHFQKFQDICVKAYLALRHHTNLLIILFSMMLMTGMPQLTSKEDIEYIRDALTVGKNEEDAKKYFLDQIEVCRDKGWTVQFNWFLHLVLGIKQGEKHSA

Sequence of PI3 Kinase α (P42336 whole entry): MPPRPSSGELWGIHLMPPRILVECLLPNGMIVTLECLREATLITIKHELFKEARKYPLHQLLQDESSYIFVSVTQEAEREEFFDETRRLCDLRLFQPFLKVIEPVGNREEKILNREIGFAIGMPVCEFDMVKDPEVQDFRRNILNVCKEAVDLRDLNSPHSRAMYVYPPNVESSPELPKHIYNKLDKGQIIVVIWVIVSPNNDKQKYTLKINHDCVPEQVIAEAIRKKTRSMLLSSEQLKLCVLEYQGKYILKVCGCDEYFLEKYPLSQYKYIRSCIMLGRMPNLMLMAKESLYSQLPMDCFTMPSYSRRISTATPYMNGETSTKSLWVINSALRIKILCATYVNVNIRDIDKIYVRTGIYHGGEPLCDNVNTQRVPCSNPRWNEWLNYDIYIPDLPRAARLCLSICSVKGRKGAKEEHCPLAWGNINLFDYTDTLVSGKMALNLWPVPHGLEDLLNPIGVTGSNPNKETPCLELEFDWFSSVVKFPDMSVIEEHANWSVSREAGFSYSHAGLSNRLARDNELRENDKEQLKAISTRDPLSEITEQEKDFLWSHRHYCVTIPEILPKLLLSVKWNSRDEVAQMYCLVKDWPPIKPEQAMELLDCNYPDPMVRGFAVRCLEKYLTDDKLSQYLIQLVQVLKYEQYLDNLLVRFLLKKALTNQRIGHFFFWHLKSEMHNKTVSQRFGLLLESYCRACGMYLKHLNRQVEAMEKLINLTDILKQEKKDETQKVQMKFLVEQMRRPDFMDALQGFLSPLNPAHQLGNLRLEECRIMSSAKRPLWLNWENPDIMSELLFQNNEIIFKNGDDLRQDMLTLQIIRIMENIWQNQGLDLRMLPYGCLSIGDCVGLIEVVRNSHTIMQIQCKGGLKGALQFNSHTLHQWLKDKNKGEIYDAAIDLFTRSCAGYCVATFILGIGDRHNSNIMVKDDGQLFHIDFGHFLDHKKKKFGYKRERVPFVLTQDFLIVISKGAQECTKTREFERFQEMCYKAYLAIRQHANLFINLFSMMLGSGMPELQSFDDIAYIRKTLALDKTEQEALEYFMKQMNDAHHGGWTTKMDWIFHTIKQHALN
Sequence of PI3 Kinase α (P27986 whole entry partner): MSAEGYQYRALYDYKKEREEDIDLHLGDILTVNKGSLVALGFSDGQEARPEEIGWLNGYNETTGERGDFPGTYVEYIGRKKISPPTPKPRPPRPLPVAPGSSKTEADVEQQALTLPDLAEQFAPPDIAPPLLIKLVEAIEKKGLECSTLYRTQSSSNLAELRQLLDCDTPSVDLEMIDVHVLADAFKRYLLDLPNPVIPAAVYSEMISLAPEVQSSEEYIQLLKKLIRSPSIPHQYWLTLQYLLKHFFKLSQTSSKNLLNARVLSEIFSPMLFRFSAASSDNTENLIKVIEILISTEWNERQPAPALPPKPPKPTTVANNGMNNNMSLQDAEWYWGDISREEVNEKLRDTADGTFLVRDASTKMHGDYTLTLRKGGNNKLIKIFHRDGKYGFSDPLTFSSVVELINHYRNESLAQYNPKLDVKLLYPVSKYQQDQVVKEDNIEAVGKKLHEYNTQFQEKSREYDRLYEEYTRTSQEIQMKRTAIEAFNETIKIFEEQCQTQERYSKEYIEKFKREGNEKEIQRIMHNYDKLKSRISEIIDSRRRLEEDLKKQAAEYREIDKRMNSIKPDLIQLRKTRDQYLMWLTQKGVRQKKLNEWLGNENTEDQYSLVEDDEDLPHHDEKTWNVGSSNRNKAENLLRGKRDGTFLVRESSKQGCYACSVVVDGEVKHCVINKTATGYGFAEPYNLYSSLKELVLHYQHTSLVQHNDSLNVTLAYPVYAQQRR

Consider `COC(=O)c1ccc(Cn2nnc3c(N4CCOCC4)nc(-c4cccc(CO)c4)nc32)cc1` [Example 243, methyl 4-({5-[3-(hydroxymethyl)phenyl]-7-morpholin-4-yl-3H-[1,2,3]triazolo[4,5-d]pyrimidin-3-yl}methyl)benzoate], for which the IC50 – broadly, the concentration that inhibits the measured activity by half – in test [1] stood at 765 nM; in test [2], 9590 nM.
Regarding `CC(C)(C)OC(=O)NC1CCN(C(=O)c2ccc(Cn3nnc4c(N5CCOCC5)nc(-c5cccc(O)c5)nc43)cc2)CC1` [Example 209, tert-butyl [1-(4-{[5-(3-hydroxyphenyl)-7-morpholin-4-yl-3H-[1,2,3]triazolo[4,5-d]pyrimidin-3-yl]methyl}benzoyl)piperidin-4-yl]carbamate], the IC50 in test [1] amounted to 447 nM; in test [2], 1670 nM.
On the same counts, the results for `CCn1nnc2c(N3CCOCC3)nc(-c3ccc(NC(=O)Nc4ccc(C(=O)NCc5ccncc5)cc4)cc3)nc21` [Example 51, 4-({[4-(3-ethyl-7-morpholin-4-yl-3H-[1,2,3]triazolo[4,5-d]pyrimidin-5-yl)phenyl]carbamoyl}amino)-N-(pyridin-4-ylmethyl)benzamide] are 3.6 nM and 31 nM.
On to `CC(=O)NCCNC(=O)c1ccc(Cn2nnc3c(N4CCOCC4)nc(-c4cccc(O)c4)nc32)cc1` [Example 210, N-(2-acetamidoethyl)-4-{[5-(3-hydroxyphenyl)-7-morpholin-4-yl-3H-[1,2,3]triazolo[4,5-d]pyrimidin-3-yl]methyl}benzamide], for which the concentration for half-maximal inhibition (IC50) in test [1] is 692 nM; in test [2], 782 nM.
As for `O=C(NCCc1cnc[nH]1)c1ccc(Cn2nnc3c(N4CCOCC4)nc(-c4cccc(O)c4)nc32)cc1` [Example 231, 4-{[5-(3-hydroxyphenyl)-7-morpholin-4-yl-3H-[1,2,3]triazolo[4,5-d]pyrimidin-3-yl]methyl}-N-[2-(1H-imidazol-5-yl)ethyl]benzamide], the IC50 in test [1] was found to be 60 nM; in test [2], 2300 nM.
Take `CC(C)(C)OC(=O)N1CCN(CCn2nnc3c(N4CCOCC4)nc(-c4cccc(O)c4)nc32)CC1` [Example 97, tert-butyl 4-{2-[5-(3-hydroxyphenyl)-7-morpholin-4-yl-3H-[1,2,3]triazolo[4,5-d]pyrimidin-3-yl]ethyl}piperazine-1-carboxylate]: the concentration for half-maximal inhibition (IC50) amounted to 1020 nM in test [1] and 4360 nM in test [2].
The corresponding values for `Cn1nnc2c(N3CCOCC3)nc(-c3ccc(NC(=O)Nc4cccnc4)cc3)nc21` [Example 199, 1-[4-(3-methyl-7-morpholin-4-yl-3H-[1,2,3]triazolo[4,5-d]pyrimidin-5-yl)phenyl]-3-pyridin-3-ylurea] are 10.5 nM and 49 nM.
Turning to `COC(Cn1nnc2c(N3CCOCC3)nc(-c3ccc(N)cc3)nc21)OC` [Example 178, 4-[3-(2,2-dimethoxyethyl)-7-morpholin-4-yl-3H-[1,2,3]triazolo[4,5-d]pyrimidin-5-yl]aniline], the IC50 was 1340 nM in test [1] and greater than 10000 nM in test [2].
Consider `CCn1nnc2c(N3CCOC[C@@H]3C)nc(-c3ccc(NC(=O)Nc4ccc(C#N)cc4)cc3)nc21` [Example 75, (S)-1-(4-cyanophenyl)-3-(4-(3-ethyl-7-(3-methylmorpholino)-3H-[1,2,3]triazolo[4,5-d]pyrimidin-5-yl)phenyl)urea], for which the IC50 came to 13.5 nM in test [1] and 92.5 nM in test [2].
`CC(=O)N1CCN(CCn2nnc3c(N4CCOCC4)nc(-c4cccc(O)c4)nc32)CC1` [Example 105, 3-{3-[2-(4-acetylpiperazin-1-yl)ethyl]-7-morpholin-4-yl-3H-[1,2,3]triazolo[4,5-d]pyrimidin-5-yl}phenol]: the values for the IC50 in test [1] and in test [2] were 1380 nM and 2960 nM, respectively.
In the case of `CC(C)(C)OC(=O)Cn1nnc2c(N3CCOCC3)nc(-c3cccc(O)c3)nc21` [Example 233, tert-butyl [5-(3-hydroxyphenyl)-7-morpholin-4-yl-3H-[1,2,3]triazolo[4,5-d]pyrimidin-3-yl]acetate], the IC50 in test [1] came to 501 nM; in test [2], 2720 nM.
As to `O=C(c1ccc(Cn2nnc3c(N4CCOCC4)nc(-c4cccc(O)c4)nc32)cc1)N1CCCC1` [Example 228, 3-{7-morpholin-4-yl-3-[4-(pyrrolidin-1-ylcarbonyl)benzyl]-3H-[1,2,3]triazolo[4,5-d]pyrimidin-5-yl}phenol], the IC50 in test [1] amounted to 911 nM; in test [2], 544 nM.
On to `Oc1cccc(-c2nc(N3CCOCC3)c3nnn(C4CCN(Cc5ccccc5)CC4)c3n2)c1` [Example 1, 3-[3-(1-benzylpiperidin-4-yl)-7-morpholin-4-yl-3H-[1,2,3]triazolo[4,5-d]pyrimidin-5-yl]phenol], for which the IC50 in test [1] turned out to be 121 nM; in test [2] it was 667 nM.
Regarding `Cn1cncc1CN1CCC(n2nnc3c(N4CCOCC4)nc(-c4cncc(O)c4)nc32)CC1` [Example 24, 5-(3-{1-[(1-methyl-1H-imidazol-5-yl)methyl]piperidin-4-yl}-7-morpholin-4-yl-3H-[1,2,3]triazolo[4,5-d]pyrimidin-5-yl)pyridin-3-ol], the IC50 in test [1] turned out to be 86 nM; in test [2], 219 nM.
Take `Oc1cncc(-c2nc(N3CCOCC3)c3nnn(C4CCNCC4)c3n2)c1` [Example 12, 5-(7-morpholin-4-yl-3-piperidin-4-yl-3H-[1,2,3]triazolo[4,5-d]pyrimidin-5-yl)pyridin-3-ol]: the IC50 in test [1] was 80 nM; in test [2], 168 nM.
As for `Cn1nccc1CN1CCC(n2nnc3c(N4CCOCC4)nc(-c4cncc(O)c4)nc32)CC1` [Example 30, 5-(3-{1-[(1-methyl-1H-pyrazol-5-yl)methyl]piperidin-4-yl}-7-morpholin-4-yl-3H-[1,2,3]triazolo[4,5-d]pyrimidin-5-yl)pyridin-3-ol], the IC50 was determined as 231 nM in test [1] and 2860 nM in test [2].
Take `CN(C)CCNC(=O)Nc1ccc(-c2nc(N3CCOCC3)c3nnn(C4CCN(Cc5ccc[nH]5)CC4)c3n2)cc1` [Example 161, 1-(4-(3-(1-((1H-pyrrol-2-yl)methyl)piperidin-4-yl)-7-morpholino-3H-[1,2,3]triazolo[4,5-d]pyrimidin-5-yl)phenyl)-3-(2-(dimethylamino)ethyl)urea]: the 50% inhibitory concentration (IC50) was 80 nM in test [1] and 286 nM in test [2].
Take `O=C(NCc1ccccc1)c1ccc(Cn2nnc3c(N4CCOCC4)nc(-c4cccc(O)c4)nc32)cc1` [Example 212, N-benzyl-4-{[5-(3-hydroxyphenyl)-7-morpholin-4-yl-3H-[1,2,3]triazolo[4,5-d]pyrimidin-3-yl]methyl}benzamide]: the IC50 worked out at 78 nM in test [1] and 766 nM in test [2].
For `Cc1cc(CN2CCC(n3nnc4c(N5CCOCC5)nc(-c5cncc(O)c5)nc43)CC2)sc1C` [Example 26, 5-(3-{1-[(4,5-dimethyl-2-thienyl)methyl]piperidin-4-yl}-7-morpholin-4-yl-3H-[1,2,3]triazolo[4,5-d]pyrimidin-5-yl)pyridin-3-ol], the IC50 in test [1] is 16 nM; in test [2] it was 108 nM.
The corresponding values for `Oc1cncc(-c2nc(N3CCOCC3)c3nnn(C4CCN(Cc5cncc(Br)c5)CC4)c3n2)c1` [Example 16, 5-(3-{1-[(5-bromopyridin-3-yl)methyl]piperidin-4-yl}-7-morpholin-4-yl-3H-[1,2,3]triazolo[4,5-d]pyrimidin-5-yl)pyridin-3-ol] are 61 nM and 161 nM.
For `CC(C)(C)OC(=O)N1CC(n2nnc3c(N4CCOCC4)nc(-c4ccc(NC(=O)Nc5cccs5)cc4)nc32)C1` [Example 132, tert-butyl 3-(7-morpholin-4-yl-5-{4-[(2-thienylcarbamoyl)amino]phenyl}-3H-[1,2,3]triazolo[4,5-d]pyrimidin-3-yl)azetidine-1-carboxylate], the IC50 in test [1] came to 21 nM; in test [2], 1430 nM.
On the same counts, the results for `OCc1cccc(-c2nc(N3CCOCC3)c3nnn(C4CCNCC4)c3n2)c1` [Example 176, [3-(7-morpholin-4-yl-3-piperidin-4-yl-3H-[1,2,3]triazolo[4,5-d]pyrimidin-5-yl)phenyl]methanol] are 23.7 nM and 164 nM.
With `Nc1ccccc1C(=O)N1CC(n2nnc3c(N4CCOCC4)nc(-c4cccc(O)c4)nc32)C1` [Example 126, (2-amino-phenyl)-{3-[5-(3-hydroxy-phenyl)-7-morpholin-4-yl-[1,2,3]triazolo[4,5-d]pyrimidin-3-yl]-azetidin-1-yl}-methanone], the half-inhibitory concentration (IC50) came out at 60.5 nM in test [1] and 873 nM in test [2].
On to `O=C(Nc1ccc(-c2nc(N3CCOCC3)c3nnn(CC(F)(F)F)c3n2)cc1)Nc1cncnc1` [Example 136, 1-{4-[7-morpholin-4-yl-3-(2,2,2-trifluoroethyl)-3H-[1,2,3]triazolo[4,5-d]pyrimidin-5-yl]phenyl}-3-pyrimidin-5-ylurea], for which the values for the IC50 in test [1] and in test [2] were 38 nM and 88 nM, respectively.
As to `O=C(NCCc1ccccc1)c1ccc(Cn2nnc3c(N4CCOCC4)nc(-c4cccc(O)c4)nc32)cc1` [Example 223, 4-{[5-(3-hydroxyphenyl)-7-morpholin-4-yl-3H-[1,2,3]triazolo[4,5-d]pyrimidin-3-yl]methyl}-N-(2-phenylethyl)benzamide], the half-maximal inhibitory concentration (IC50) in test [1] turned out to be 175 nM; in test [2], 2510 nM.
Consider `O=C(c1ccncc1)N1CCN(CCn2nnc3c(N4CCOCC4)nc(-c4cccc(O)c4)nc32)CC1` [Example 103, 3-{3-[2-(4-isonicotinoylpiperazin-1-yl)ethyl]-7-morpholin-4-yl-3H-[1,2,3]triazolo[4,5-d]pyrimidin-5-yl}phenol], for which the figures for the IC50 in test [1] and in test [2] were 987 nM and 5050 nM, respectively.
On to `CC(C)n1nnc2c(N3CCOCC3)nc(-c3ccc(NC(=O)Nc4ccc(N5CCOCC5)cc4)cc3)nc21` [Example 85, 1-[4-(3-Isopropyl-7-morpholin-4-yl-3H-[1,2,3]triazolo[4,5-d]pyrimidin-5-yl)-phenyl]-3-(4-morpholin-4-yl-phenyl)-urea], for which the IC50 in test [1] turned out to be 25 nM; in test [2], 78 nM.
In the case of `Oc1cccc(-c2nc(N3CCOCC3)c3nnn(CCN4CCN(C5CCCCC5)CC4)c3n2)c1` [Example 106, 3-{3-[2-(4-cyclohexylpiperazin-1-yl)ethyl]-7-morpholin-4-yl-3H-[1,2,3]triazolo[4,5-d]pyrimidin-5-yl}phenol], the values for the IC50 in test [1] and in test [2] were 556 nM and 2140 nM, respectively.
